The target in experiment [1] is Mu-type opioid receptor (Rattus norvegicus) (UniProt P33535). Nature of the experiment: Inhibition of MOPr desensitization in wistar rat LC neuron cells assessed as reduction in the DAMGO induced desensitization incubated for 15 mins in the presence of Y-27632. The format is functional, cell-based.
Experiment [2] has the same target. Put plainly: Inhibition of MOPr desensitization in wistar rat LC neuron cells assessed as reduction in the DAMGO induced desensitization incubated for 15 mins in the presence of GSK650394. The format is functional, cell-based.

Activity calls are given as the source filed them. The calls are words filed in the database; no cut-off is given here.

Sequence of Mu-type opioid receptor (Rattus norvegicus) (P33535 whole entry): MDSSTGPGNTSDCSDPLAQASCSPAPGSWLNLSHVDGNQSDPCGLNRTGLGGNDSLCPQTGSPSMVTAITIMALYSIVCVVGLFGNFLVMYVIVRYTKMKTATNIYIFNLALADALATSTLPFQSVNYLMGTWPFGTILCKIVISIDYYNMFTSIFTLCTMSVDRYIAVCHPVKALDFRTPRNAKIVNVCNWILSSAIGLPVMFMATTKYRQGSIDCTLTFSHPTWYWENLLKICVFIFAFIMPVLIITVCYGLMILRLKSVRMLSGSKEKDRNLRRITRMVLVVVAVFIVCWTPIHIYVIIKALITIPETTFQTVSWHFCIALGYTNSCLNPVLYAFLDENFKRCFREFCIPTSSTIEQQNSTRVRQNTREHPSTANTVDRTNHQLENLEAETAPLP

On to `O=C(O)c1ccc(-c2c[nH]c3ncc(-c4ccccc4)cc23)cc1C1CCCC1`, for which the inhibition result in experiment [1] was “inactive”.

Regarding `C[C@@H](N)[C@H]1CC[C@H](C(=O)Nc2ccncc2)CC1`, in experiment [2], the inhibition entry is “inactive”.

(Values after ChEMBL document CHEMBL5705902, “Role of G Protein-Coupled Receptor Kinases 2 and 3 in μ-Opioid Receptor Desensitization and Internalization” (Mol Pharmacol, 2015).)
